The compounds below were run against Cannabinoid receptor 1 (Rattus norvegicus, UniProt P20272).
Chain of Cannabinoid receptor 1 (P20272 whole entry): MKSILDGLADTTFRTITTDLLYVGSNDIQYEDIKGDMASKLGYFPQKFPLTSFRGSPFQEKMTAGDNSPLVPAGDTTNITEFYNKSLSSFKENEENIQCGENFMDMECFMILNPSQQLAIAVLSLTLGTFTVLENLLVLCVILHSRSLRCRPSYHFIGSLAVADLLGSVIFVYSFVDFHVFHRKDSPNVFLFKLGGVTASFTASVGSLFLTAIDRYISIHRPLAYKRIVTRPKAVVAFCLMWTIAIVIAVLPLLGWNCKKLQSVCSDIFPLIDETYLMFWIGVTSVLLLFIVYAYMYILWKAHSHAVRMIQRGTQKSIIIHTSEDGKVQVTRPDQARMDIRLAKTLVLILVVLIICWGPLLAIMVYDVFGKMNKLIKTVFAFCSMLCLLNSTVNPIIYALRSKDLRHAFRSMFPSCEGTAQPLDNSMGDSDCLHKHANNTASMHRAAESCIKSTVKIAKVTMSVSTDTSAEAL

`CCCCCn1ccc(C(=O)c2cccc3ccccc23)c1` was tested. Which Ki did it give?
Its Ki is 87 nM.

For `CCCCn1cc(C(=O)c2cccc3ccccc23)c2ccccc21` [1-Naphthyl(1-butyl-1H-indole-3-yl)methanone], which Ki is on record?
Its Ki is 8.9 nM.

With `CCCCC/C=C/C/C=C/C/C=C/C/C=C/CCC(C)(C)C(=O)NCCO` [2-dimethyl-anandamide] as the compound, how does the Ki read?
The Ki was 47 nM.

With `CCCCCc1cc(O)c2c(c1)OC(C)(C)c1ccc(C)cc1-2` [6,6,9-Trimethyl-3-pentyl-6H-benzo[c]chromen-1-ol(Cannabinol)] as the compound, how does the Ki read?
The Ki was 308 nM.

`CCCCC/C=C/C/C=C/C/C=C/C/C=C/CCC(C)C(=O)NCCO` (configuration not stated) [(5Z,8Z,11Z,14Z)-2-Methyl-N-(2-hydroxyethyl)-5,8,11,14-icosatetrenamide] was tested. Which Ki did it give?
Its Ki is 53 nM.

Which Ki does the source give for `CCCCC/C=C/C/C=C/C/C=C/C/C=C/CCC(C)C(=O)NCCF` (configuration not stated) [(5Z,8Z,11Z,14Z)-N-(2-Fluoroethyl)-2-methyl-5,8,11,14-icosatetrenamide] here?
Its Ki is 5.7 nM.

`CCCCCCC(C)(C)c1cc(O)c2c(c1)OC(C)(C)[C@@H]1CC=C(CO)CC21` (stereo partly drawn) [(R)-3-(1,1-Dimethyl-heptyl)-9-hydroxymethyl-6,6-dimethyl-6a,7,10,10a-tetrahydro-6H-benzo[c]chromen-1-ol] was tested. Which Ki did it give?
The Ki was 0.73 nM.

How did the Ki turn out when `CCCCCCn1ccc(C(=O)c2cccc3ccccc23)c1` [CAS_162934-74-9] was run?
Its Ki is 399 nM.

`CCCn1ccc(C(=O)c2cccc3ccccc23)c1` [JWH-032] was tested. Which Ki did it give?
The Ki was greater than 10000 nM.

`CCCCCCCn1ccc(C(=O)c2cccc3ccccc23)c1` [JWH-036] was tested. Which Ki did it give?
The Ki was 309 nM.

How did the Ki turn out when `Cn1ccc(C(=O)c2cccc3ccccc23)c1` [JWH-044] was run?
Its Ki is greater than 10000 nM.

For `CCn1ccc(C(=O)c2cccc3ccccc23)c1` [JWH-045], which Ki is on record?
Its Ki is greater than 10000 nM.

From BindingDB's records for PubMed 11408610 (Virginia Commonwealth University, 2001)
